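The compound was tested at five concentrations on cells cultured in 96-well plates, with a 48-hour exposure period. GI50 marks 50% less growth. TGI: total growth inhibition.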
Tests used:
Experiment in all cases: NCI anticancer screen, dose series, 48 h
[1] = test system: COLO 205 colon
[2] = test system: SR leukemia
[3] = test system: OVCAR-5 ovarian
[4] = test system: HT29 colon
[5] = test system: 786-0 renal
[6] = test system: ACHN renal
[7] = test system: DU-145 prostate
[8] = test system: EKVX NSCLC
[9] = test system: HL-60(TB) leukemia
[10] = test system: LOX IMVI melanoma

SMILES	GI50 [1]	TGI [1]	GI50 [2]	TGI [2]	GI50 [3]	TGI [3]	GI50 [4]	TGI [4]	GI50 [5]	TGI [5]	GI50 [6]	TGI [6]	GI50 [7]	TGI [7]	GI50 [8]	TGI [8]	GI50 [9]	TGI [9]	GI50 [10]	TGI [10]
CC[C@@H](C)/C=C(C)/C=C/C(=O)c1c(O)c(-c2ccc(O)cc2)cn(OC2CC(=O)CCC(C)OC(=O)CC2O)c1=O (stereo partly drawn)	5970 nM	21200 nM	210 nM	1270 nM	2350 nM	23300 nM	3470 nM	14100 nM	386 nM	4090 nM	258 nM	7060 nM	303 nM	13400 nM	1390 nM	12300 nM	212 nM	2860 nM	171 nM	2700 nM
CC[C@@]1(O)C(=O)OCc2c1cc1n(c2=O)Cc2c-1nc1cc(F)c(C)c3c1c2[C@@H](NC(=O)CO)CC3	127 nM	4160 nM	< 10 nM	> 100000 nM	115 nM	–	51.2 nM	–	< 10 nM	439 nM	< 10 nM	131 nM	< 10 nM	> 100000 nM	311 nM	> 100000 nM	< 10 nM	781 nM	< 10 nM	31.4 nM
COCCn1c2c([n+](Cc3cnccn3)c1C)C(=O)c1ccccc1C2=O	23.5 nM	62.6 nM	< 10.8 nM	6850 nM	30.8 nM	129 nM	30.9 nM	111 nM	14.3 nM	99.2 nM	40 nM	2110 nM	< 10 nM	19 nM	< 10 nM	16.2 nM	< 10 nM	< 10 nM	< 10 nM	< 11.8 nM

From PubChem BioAssay (NCI)
